From US11034650B2, “Compounds useful for treating a Mannheimia haemolytica or Histophilus somni infection” (Intervet Inc., priority 2016, dated 2021) come the findings set out here.

Molecules are shown by their SMILES. ≈ marks a conversion by molar mass, not a printed value.

Common to all, as to type: cell-based
Experiment [1] concerns Mannheimia haemolytica MH 10720 (154, BRD field isolate). Put plainly: MIC, broth-microdilution (CLSI VET01-A4), strain MH 10720. The note with it: Mannheimia haemolytica strain MH 10720, broth-microdilution; unit assumed. A digest of the protocol: (§1)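 Compounds were serially diluted twofold in microdilution trays. Growth was judged by eye, and the MIC was the lowest concentration showing no turbidity. Results were interpreted per CLSI VET01-S3.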
In general terms: In broth dilution the organism is exposed to a series of concentrations in liquid medium.

Experiment [2] has as its system Mannheimia haemolytica MH 12587 (1071, BRD field isolate, macrolide-resistance: erm+, E+). Put plainly: MIC, broth-microdilution (CLSI VET01-A4), strain MH 12587. The note with it: Mannheimia haemolytica strain MH 12587, broth-microdilution; unit assumed. A digest of the protocol: as §1
In experiment [3] the test system is Pasteurella multocida PM 6391 (ATCC 43137, reference strain). Put plainly: MIC, broth-microdilution (CLSI VET01-A4), strain PM 6391. To be noted: Pasteurella multocida strain PM 6391, broth-microdilution; unit assumed. The method, boiled down: as §1
In experiment [4] the test system is Pasteurella multocida PM 6267 (P 2225 (L386), reference strain, mouse infection strain). Put plainly: MIC, broth-microdilution (CLSI VET01-A4), strain PM 6267. The note with it: Pasteurella multocida strain PM 6267, broth-microdilution; unit assumed. A digest of the protocol: as §1
The test system of experiment [5] is Mannheimia haemolytica MH 6374 (ATCC 33396, reference strain). Put plainly: MIC, broth-microdilution (CLSI VET01-A4), strain MH 6374. To be noted: Mannheimia haemolytica strain MH 6374, broth-microdilution; unit assumed. A digest of the protocol: as §1
The subject of experiment [6] is Pasteurella multocida PM 12080 (IV102277-0093, BRD field isolate). The experiment is described as follows: MIC, broth-microdilution (CLSI VET01-A4), strain PM 12080. The note with it: Pasteurella multocida strain PM 12080, broth-microdilution; unit assumed. A digest of the protocol: as §1
Experiment [7] relates to Mannheimia haemolytica MH 6357 (M7/2, reference strain, cattle infection strain). Put plainly: MIC, broth-microdilution (CLSI VET01-A4), strain MH 6357. The note with it: Mannheimia haemolytica strain MH 6357, broth-microdilution; unit assumed. A digest of the protocol: as §1
The test system of experiment [8] is Mannheimia haemolytica MH 13065 (XB0446-6003.9, BRD field isolate). The experiment is described as follows: MIC, broth-microdilution (CLSI VET01-A4), strain MH 13065. The note with it: Mannheimia haemolytica strain MH 13065, broth-microdilution; unit assumed. A digest of the protocol:
as §1

Experiment [9] concerns Mannheimia haemolytica MH 13093 (XB0472-6014.1, BRD field isolate). The experiment is described as follows: MIC, broth-microdilution (CLSI VET01-A4), strain MH 13093. The note with it: Mannheimia haemolytica strain MH 13093, broth-microdilution; unit assumed. A digest of the protocol:
as §1

For experiment [10], the system named is Pasteurella multocida PM 10775 (080130003051, BRD field isolate). The experiment is described as follows: MIC, broth-microdilution (CLSI VET01-A4), strain PM 10775. To be noted: Pasteurella multocida strain PM 10775, broth-microdilution; unit assumed. A digest of the protocol: as §1

In turn, `CSC(C)(C)[C@H](NC(=O)c1ccc(C#Cc2ccc(CNC3CCCC3)cc2)cc1)C(=O)NO` [Compound 244] came in with an MIC MH 10720 in experiment [1] of 1.6 µg/mL (≈ 3.34 µM). This compound came in with an MIC MH 12587 in experiment [2] of 6.3 µg/mL (≈ 13.1 µM). This compound came in with an MIC PM 6391 in [3] of 1.6 µg/mL (≈ 3.34 µM). In experiment [4], this compound yielded an MIC PM 6267 of 0.4 µg/mL (≈ 0.834 µM). The MIC MH 6374 in experiment [5] amounted to 6.3 µg/mL (≈ 13.1 µM). Also, the MIC PM 12080 in experiment [6] was determined as 0.8 µg/mL (≈ 1.67 µM). The MIC MH 6357 in experiment [7] was 3.1 µg/mL (≈ 6.46 µM). This compound returned an MIC MH 13065 in experiment [8] of 3.1 µg/mL (≈ 6.46 µM). Also, in [9], the MIC MH 13093 was determined as 6.3 µg/mL (≈ 13.1 µM). The compound further had an MIC PM 10775 in experiment [10] of 0.2 µg/mL (≈ 0.417 µM).

Turning to `CCCNCc1ccc(C#Cc2ccc(C(=O)N[C@H](C(=O)NO)C(C)(C)SC)cc2)cc1` [Compound 245], the MIC MH 10720 in experiment [1] was determined as 0.4 µg/mL (≈ 0.882 µM). Moreover, the MIC MH 12587 in experiment [2] turned out to be 3.1 µg/mL (≈ 6.83 µM). The same compound returned an MIC PM 6391 in [3] of 0.8 µg/mL (≈ 1.76 µM). The same compound yielded an MIC PM 6267 in experiment [4] of 0.4 µg/mL (≈ 0.882 µM). The MIC MH 6374 in experiment [5] worked out at 3.1 µg/mL (≈ 6.83 µM). Besides, the MIC PM 12080 in experiment [6] is 0.8 µg/mL (≈ 1.76 µM). In [7], this compound showed an MIC MH 6357 of 3.1 µg/mL (≈ 6.83 µM). This compound displayed an MIC MH 13065 in experiment [8] of 1.6 µg/mL (≈ 3.53 µM). The compound further registered an MIC MH 13093 in [9] of 3.1 µg/mL (≈ 6.83 µM). In addition, the MIC PM 10775 in experiment [10] was no more than 0.1 µg/mL.

For `CSC(C)(C)[C@H](NC(=O)c1ccc(C#Cc2ccc(CNCC#N)cc2)cc1)C(=O)NO` [Compound 246], the MIC MH 10720 in experiment [1] was no more than 0.1 µg/mL. In addition, the MIC MH 12587 in experiment [2] is 0.8 µg/mL (≈ 1.78 µM). The same compound showed an MIC PM 6391 in [3] of 0.2 µg/mL (≈ 0.444 µM). The compound further had an MIC PM 6267 in experiment [4] of no more than 0.1 µg/mL. The same compound showed an MIC MH 6374 in [5] of 0.8 µg/mL (≈ 1.78 µM). In [6], this compound came in with an MIC PM 12080 of 0.2 µg/mL (≈ 0.444 µM). This compound registered an MIC MH 6357 in experiment [7] of 0.4 µg/mL (≈ 0.888 µM). Moreover, in [8], the MIC MH 13065 worked out at 0.8 µg/mL (≈ 1.78 µM). The same compound registered an MIC MH 13093 in experiment [9] of 0.4 µg/mL (≈ 0.888 µM). This compound returned an MIC PM 10775 in [10] of no more than 0.1 µg/mL.

Regarding `CSC(C)(C)[C@H](NC(=O)c1ccc(C#Cc2ccc(CNCc3cccnc3)cc2)cc1)C(=O)NO` [Compound 247], the MIC MH 10720 in experiment [1] was determined as 0.2 µg/mL (≈ 0.398 µM). The compound further had an MIC MH 12587 in [2] of 0.8 µg/mL (≈ 1.59 µM). For the same compound, the MIC PM 6391 in experiment [3] is 0.8 µg/mL (≈ 1.59 µM). This compound also showed an MIC PM 6267 in [4] of no more than 0.1 µg/mL. For the same compound, in experiment [5], the MIC MH 6374 is 0.8 µg/mL (≈ 1.59 µM). The MIC PM 12080 in experiment [6] was 0.2 µg/mL (≈ 0.398 µM). For the same compound, the MIC MH 6357 in experiment [7] is 0.4 µg/mL (≈ 0.796 µM). In [8], this compound came in with an MIC MH 13065 of 0.4 µg/mL (≈ 0.796 µM). Further, the MIC MH 13093 in experiment [9] is 0.8 µg/mL (≈ 1.59 µM). For the same compound, the MIC PM 10775 in experiment [10] was no more than 0.1 µg/mL.

In experiment [1], `CSC(C)(C)[C@H](NC(=O)c1ccc(C#Cc2ccc(CNCc3ccnc(Cl)c3)cc2)cc1)C(=O)NO` [Compound 248] came in with an MIC MH 10720 of 0.4 µg/mL (≈ 0.745 µM). Further, the MIC MH 12587 in [2] came to 1.6 µg/mL (≈ 2.98 µM). The same compound returned an MIC PM 6391 in [3] of 0.8 µg/mL (≈ 1.49 µM). Also, in [4], the MIC PM 6267 was 0.4 µg/mL (≈ 0.745 µM). The compound further came in with an MIC MH 6374 in [5] of 1.6 µg/mL (≈ 2.98 µM). The compound also gave an MIC PM 12080 in experiment [6] of 0.8 µg/mL (≈ 1.49 µM). Moreover, in experiment [7], the MIC MH 6357 amounted to 1.6 µg/mL (≈ 2.98 µM). The compound further returned an MIC MH 13065 in [8] of 1.6 µg/mL (≈ 2.98 µM). The compound further registered an MIC MH 13093 in experiment [9] of 1.6 µg/mL (≈ 2.98 µM). This compound had an MIC PM 10775 in experiment [10] of 0.2 µg/mL (≈ 0.372 µM).

For `CSC(C)(C)[C@H](NC(=O)c1ccc(C#Cc2ccc(CNCc3ccccn3)cc2)cc1)C(=O)NO` [Compound 249], in experiment [1], the MIC MH 10720 came out at 0.2 µg/mL (≈ 0.398 µM). Moreover, the MIC MH 12587 in experiment [2] was determined as 1.6 µg/mL (≈ 3.18 µM). In experiment [3], this compound yielded an MIC PM 6391 of 0.8 µg/mL (≈ 1.59 µM). The compound also yielded an MIC PM 6267 in experiment [4] of 0.2 µg/mL (≈ 0.398 µM). Further, in [5], the MIC MH 6374 came out at 1.6 µg/mL (≈ 3.18 µM). The MIC PM 12080 in experiment [6] came out at 0.4 µg/mL (≈ 0.796 µM). The compound further yielded an MIC MH 6357 in experiment [7] of 0.8 µg/mL (≈ 1.59 µM). The same compound came in with an MIC MH 13065 in experiment [8] of 0.8 µg/mL (≈ 1.59 µM). The MIC MH 13093 in experiment [9] worked out at 0.8 µg/mL (≈ 1.59 µM). The same compound came in with an MIC PM 10775 in experiment [10] of no more than 0.1 µg/mL.

Compound `CSC(C)(C)[C@H](NC(=O)c1ccc(C#Cc2ccc(CNCc3ccco3)cc2)cc1)C(=O)NO` [Compound 250] came in with an MIC MH 10720 in experiment [1] of no more than 0.1 µg/mL. In experiment [2], this compound showed an MIC MH 12587 of 0.8 µg/mL (≈ 1.63 µM). The compound further returned an MIC PM 6391 in experiment [3] of 0.2 µg/mL (≈ 0.407 µM). This compound showed an MIC PM 6267 in experiment [4] of no more than 0.1 µg/mL. This compound also came in with an MIC MH 6374 in experiment [5] of 0.8 µg/mL (≈ 1.63 µM). Besides, the MIC PM 12080 in experiment [6] is no more than 0.1 µg/mL. Also, in [7], the MIC MH 6357 came to 0.4 µg/mL (≈ 0.814 µM). Besides, in [8], the MIC MH 13065 amounted to 0.4 µg/mL (≈ 0.814 µM). For the same compound, the MIC MH 13093 in experiment [9] stood at 0.4 µg/mL (≈ 0.814 µM). The same compound yielded an MIC PM 10775 in experiment [10] of no more than 0.1 µg/mL.

`CSC(C)(C)[C@H](NC(=O)c1ccc(C#Cc2ccc(CNCc3cccs3)cc2)cc1)C(=O)NO` [Compound 251]: the MIC MH 10720 in [1] was no more than 0.1 µg/mL. In addition, the MIC MH 12587 in [2] is 1.6 µg/mL (≈ 3.15 µM). In addition, in experiment [3], the MIC PM 6391 is 0.2 µg/mL (≈ 0.394 µM). The MIC PM 6267 in [4] was no more than 0.1 µg/mL. The MIC MH 6374 in experiment [5] worked out at 0.8 µg/mL (≈ 1.58 µM). The compound also had an MIC PM 12080 in experiment [6] of no more than 0.1 µg/mL. The compound also displayed an MIC MH 6357 in experiment [7] of 0.8 µg/mL (≈ 1.58 µM). Further, the MIC MH 13065 in experiment [8] stood at 0.8 µg/mL (≈ 1.58 µM). The MIC MH 13093 in experiment [9] worked out at 0.8 µg/mL (≈ 1.58 µM). The MIC PM 10775 in experiment [10] is no more than 0.1 µg/mL.
